In US20090137631A1, “METHODS AND PHARMACEUTICAL COMPOSITIONS FOR REGULATION OF G- AND/OR GC-RICH NUCLEIC ACID EXPRESSION” (NATIONAL YANG-MING UNIVERSITY, priority 2007, published 2009):
Where “and” joins values, the source holds several entries; their conditions need not be identical. Identical values can stand only once.

What was measured:
[1] = Stability of thalidomide in culture medium alone (9 hr pre-incubation, then bFGF transcript readout); details: 0.1˜10 μg/ml, 9 hr at 37° C. in culture medium before 3 hr on cells
Protocol: In order to test the stability of thalidomide in the culture medium alone, the thalidomide stock solution was diluted with fresh culture medium to 0.1˜10 μg/ml and incubated at 37° C. in a humidified incubator of 5% CO2-95% air for 9 hr before being added to the U-87 MG cells for 3 hr.

[2] = tested on: U-87 MG cells; experiment: Resazurin cell proliferation assay; assay type: cell-based, human; details: 0˜100 μg/ml, 72 hr (FIG. 3A)
Protocol: Cell proliferation ability was assayed using a resazurin assay (Nociari et al., 1998), in which resazurin dye was used as a redox indicator to detect cell growth, not cell death. Resazurin sodium (Sigma-Aldrich) stock solution in PBS (5 mM) was prepared, and the working solution (50 μM) was diluted from the stock using DMEM (Gibco) without FBS. Approximately 3000 U-87 MG cells were seeded onto 96-well plates (Costar, Corning), allowed to attach at 37° C. in a humidified incubator of 5% CO2-95% air for 16 hr, and treated with indicated concentrations (0, 0.1, 1, 10, and 100 μg/ml) of free-form and liposomal thalidomide for 72 h. For resazurin assay, the culture medium was removed and freshly diluted resazurin working solution (100 μl) was added into each well. Following incubation at 37° C. in a humidified incubator of 5% CO2-95% air for 2 hr, the resazurin dye was reduced by the activity of living cells, and the reduced form of resazurin was determined at a fluorescence excitation wavelength 530 nm and emission wavelength 590 nm by a Victor 2 1420 Multilable Counter (Wallac, PerkinElmer).

[3] = tested on: genes with GC-rich promoter; details: Drucker et al., 2003; cited from earlier work
[4] = tested on: bFGF proteins in U-87 MG cells; experiment: Immunofluorescence staining of bFGF protein (FACS and fluorescence microscopy); assay type: cell-based, human
Protocol: U-87 MG cells were treated with indicated concentrations (0, 0.1, 1 and 10 μg/ml) of free-form and liposomal thalidomide and fixed in 4% (w/v) paraformaldehyde (Sigma-Aldrich) in PBS for 15 min, permeabilized with 0.01% (v/v) Triton X-100 (Sigma-Aldrich) or 0.5% (v/v) saponin (Sigma-Aldrich) in PBS for 30 min at room temperature. The cells were subsequently treated with 0.5 μg polyclonal rabbit anti human bFGF antibody (ab16828, Abeam) for 30 min at room temperature, washed, followed by staining with FITC-conjugated goat anti-rabbit IgG (Jackson ImmunoResearch) at 1:200 dilution for 30 min. Hoechst 33258 (Sigma-Aldrich) was used as a nuclear marker. The cells were then washed and visualized using a fluorescence microscope (Olympus Optical Co, Tokyo, Japan) or analyzed using the BD FACSCalibur™ flow cytometer (BD Biosciences). The relative expression level of cellular bFGFs was calculated by normalized the mean fluorescence value of each treatment with the empty liposome treated control. […] Because HMW bFGFs were the major isoforms localized in nucleus (Renko et al., 1990), a decrease of its signal intensity in this compartment might reflect a reduced expression of HMW bFGFs.

[5] = tested on: U-87 MG cells; experiment: Soft agar colony formation assay (anchorage-independent growth); assay type: cell-based, human; details: 2 weeks; for colony-forming ability in soft agar (anchorage-independent growth): 0.1˜10 μg/ml
Protocol: Because bFGF was known to promote cell transformation (Vagner et al., 1996), the soft agar colony formation assay (Murphy et al., 1992) and hanging drop method (Kelm et al., 2003) were used to assess the effects of thalidomide on anchorage-independent and three-dimensional growth abilities of U-87 MG cells, respectively. The colony forming assay was performed according to a two-layer agar technique (Murphy et al., 1992). The bottom layer consisted of 0.3 ml of DMEM with 10% FBS and 0.5% (w/v) agarose (Amresco). Approximately 1000 U-87 MG cells were added to the same medium containing 10% FBS and 0.3%) (w/v) low-melting agarose (Amresco) plus indicated concentrations (0, 0.1, 1 and 10 μg/ml) of free-form thalidomide, and plated in 24-well plates (Costar, Corning) onto the base layer. […] Colony-forming ability (size, >0.1 mm) was measured.

[6] = tested on: HMW-IRES; experiment: Bicistronic luciferase IRES activity, U87-HMW-IRES cells; assay type: cell-based, human; details: 0.1˜10 μg/ml, 12 hr
Text: (§1) To examine whether the G- and/or GC-rich region in IRES of N-terminal extension of bFGF transcript could also be regulated by thalidomide, plasmids pHMW-IRES and pLMW-IRES (FIG. 5A) were designed using bicistronic vector as previous described (Creancier et al., 2000). There were two luciferase genes, Renilla luciferase (LucR) and firefly luciferase (LucF), which were controlled by the cytomegalovirus (CMV) promoter and separated by the LMW-IRES fragment (SEQ ID NO. 12) and HMW-IRES fragment (SEQ ID NO. 15) in plasmids pLMW-IRES or pHMW-IRES (FIG. 5A), respectively. […] Approximately 2×10^5 U-87 MG cells were plated in 6-well plates (Falcon) 24 hr before transfection and exposed to 3 μg total DNA (plasmid pLMW-IRES or pHMW-IRES) and 3 μl Lipofectamine 2000 (Invitrogen, Carlsbad, USA) in DMEM without FBS according to the manufacture's brochure of Lipofectamine 2000. […]
(§2) U87-LMW-IRES and U87-HMW-IRES cells were treated with indicated concentrations (0, 0.1, 1 and 10 μg/ml) of liposomal thalidomide for 12 hr, and the two luciferase activities were measured in each cell extracts by scintillation counting in a Victor 2 1420 Multilabel Counter (Wallac, PerkinElmer). The IRES activity was determined by calculating the LucR/LucF ratios (the ratio of renilla to firefly luciferase activity) normalized by the untreated control.

[7] = tested on: HMW and LMW bFGF isoforms in U-87 MG cells; details: 1 and 10 μg/ml, 12 hr
Protocol: Immunoblot (or western blot) analysis was therefore performed to analyze the amount of different bFGF isoforms and GAPDH was used as die internal control, which level would not be affected by thalidomide. After being treated with indicated concentrations (0, 0.1, 1 and 10 μg/ml) of free-form and liposomal thalidomide, U-87 MG cell lysate was prepared using lysis buffer (50 mM Tris [hydroxymethyl] aminomethane (Tris; USB), 1% (v/v) TritonX-100 (Sigma-Aldrich), 150 mM sodium chloride (NaCl; J. T. Baker), 1 mM ethylenediaminetetraacetic acid (EDTA; Sigma-Aldrich), 1 mM phenylmethylsulphonyl fluoride (PMSF; Sigma-Aldrich). Cell lysates (2 μg) containing proteins were separated with using 15% polyacrylamide gel electrophoresis and transferred to a polyvinylidene fluoride (PVDF) membrane (PerkinElmer). The membrane was incubated with polyclonal rabbit anti human bFGF antibody (ab16828, Abeam) at 1:200 dilution or anti-GAPDH antibody (ab9482, Abeam) at 1:10000 dilution, which was used as an internal control, followed by horseradish peroxidase-conjugated anti-IgG secondary antibody (Jackson ImmunoResearch) at 1:5000 dilution. The enhanced chemiluminescent (ECL; PerkinElmer) detection method (Amersham) was used for blotting analysis.

[8] = tested on: LPS induced TNF-α secretion by monocytes; details: Sampaio et al., 1991; cited from earlier work
[9] = tested on: bFGF promoter; experiment: bFGF promoter-controlled EGFP reporter expression in U87-bFGF-EGFP cells; assay type: cell-based, human; details: 0.1˜10 μg/ml, 3 hr, dose-dependent
Protocol: To evaluate the effect of thalidomide on the transcription driven by bFGF promoter, pbFGF-EGFP plasmid, containing bFGF promoter to drive the expression of enhanced green fluorescence protein (EGFP), was stably transfected into U-87 MG to get U87-bFGF-EGFP cell. […] Approximately 2×10^5 U-87 MG cells were plated in 6-well plates (Falcon) 24 hr before transfection and exposed to 3 μg total DNA (plasmid pbFGF-EGFP) and 3 μl Lipofectamine 2000 (Invitrogen Corp.) in DMEM without FBS according to the manufacture's brochure of Lipofectamine 2000. After cultured at 37° C. in a humidified incubator of 5% CO2-95% air for 48 hr, cells were trypsinized and passaged into DMEM with 10% FBS (20× dilutions). Stable transfectants (U87-bFGF-EGFP cells) were selected by using geneticin (800 μg/ml; Merck Biosciences) for 1 month.
U87-bFGF-EGFP cells were treated with indicated concentrations (0, 0.1, 1 and 10 μg/ml) of free-form thalidomide for 3 hr. The fluorescence of EGFP was measured by flow cytometry (FACS Calibur, BD Biosciences). […] The RNA levels of EGFP were analyzed by real-time RT-PCR and GAPDH was used as an internal control.

[10] = tested on: G-rich hTERT promoter; details: Drucker et al., 2003; cited from earlier work
[11] = tested on: U-87 MG cells; experiment: Hanging drop spheroid aggregation assay; assay type: cell-based, human; details: 0.1˜10 μg/ml, 48 hr, dose-dependently
Protocol: For hanging drop assay, approximately 1000 U-87 MG cells per 20 μl of cell suspension in culture medium (DMEM with 10% FBS) with indicated concentrations (0, 0.1, 1 and 10 μg/ml) of free-form thalidomide were spotted on the cover of a 6-cm culture dish (Falcon). The cover was returned to its top position with the cell suspension droplet facing down toward the bottom dish, which contained 5 ml of DMEM for maintenance of moisture during incubation. […] Each spheroid was photographed by using phase-contrast microscopy. The aggregation percentage was assayed by calculating the aggregation ability from 20 spheroids for each assay condition. The cell aggregates formed in spheroid culture was abolished by free-form thalidomide dose-dependently (FIG. 3D and FIG. 3E).

[12] = tested on: G-rich bFGF DNA fragment; experiment: UV-VIS absorbance of thalidomide after incubation with bFGF DNA fragments; assay type: binding, human; details: G-rich fragment (91% GC) versus non-G-rich control fragment (44% GC)
Protocol: The G-rich fragment with 91% GC content and non-G-rich control fragment with 44% GC content were designed from the promoter region of bFGF (FIG. 6A). To examine whether thalidomide could interact preferentially with the G- and/or GC-rich region of bFGF, the ultraviolet-visible (UV-VIS) absorbance of thalidomide was assayed using a Hitachi U2000 Spectrophotometer with the scanning range from 330 to 190 nm. The absorbance of thalidomide would be diminished by bound tightly with the secondary structure of a DNA (Usha et al., 2005).

[13] = tested on: bFGF RNA levels in U-87 MG cells
Protocol: The U-87 MG cells were purchased from American Type Culture Collection (ATCC, Rockville, Md.) and maintained in Dulbecco's modified Eagle's medium (DMEM; Gibco) containing 10% heat inactivated fetal bovine serum (FBS; Gibco) and antibiotics, such as penicillin G (Sigma-Aldrich) and streptomycin (Sigma-Aldrich), at 37° C. in a humidified incubator of 5% CO2-95% air. Thalidomide (TYY Biopharm, Taiwan) was dissolved in dimethyl sulfoxide (DMSO; Sigma-Aldrich) first to make a stock solution of 50 mg/ml, and then diluted to various, desired concentrations with medium. The maximum of the final concentration of DMSO in the medium was 0.02%.
Real-time RT-PCR analysis was used to assess the RNA levels of bFGF in U-87 MG cells. After being treated with indicated concentrations (0, 0.1, 1 and 10 μg/ml) of thalidomide for 3 hr and 12 hr, U-87 MG cells were washed twice with ice-cold phosphate buffered saline (PBS) and RNA was extracted by using RNA-Bee™ RNA isolation solvent (Tel-test). Total RNA (5 μg) was used to prepare cDNA by using AMV reverse transcriptase (Promega). The reverse-transcribed cDNA samples were analyzed by real-time PCR using ABI Prism 7700 Sequence Detection System (Applied Biosystems) and the SYBR Green Master Mix kit (Applied Biosystems). […]

[14] = tested on: LMW-IRES; experiment: Bicistronic luciferase IRES activity, U87-LMW-IRES cells; assay type: cell-based, human; details: 0.1˜10 μg/ml, 12 hr
Text: as §1, §2

[15] = clinical daily dose 200 to 800 mg, maximum 1200 mg; cited from earlier work
[16] = listed as free-form thalidomide

activity after incubation in culture media (stability) [1]: completely lost its activity
SMILES: O=C1CCC(N2C(=O)c3ccccc3C2=O)C(=O)N1 (racemic) [thalidomide, 2-(2,6-dioxo-3-piperidinyl)-1H-iso-indole-1,3(2H)-dione]
suppression of the proliferation of U-87 MG cells [2]: ineffectiveness
concentration down-regulating transcripts levels for genes with GC-rich promoter [3]: over 12.5 μg/ml
total level of bFGF proteins ([4]; FACS, 12 hr (FIG. 2A)): down-regulated
nuclear level of bFGF proteins ([4]; fluorescence microscopy, 12 hr (FIG. 2B)): down-regulated
colony-forming ability in soft agar (anchorage-independent growth) [5]: efficiently inhibited
colony-forming ability in soft agar (anchorage-independent growth) [5, 16]: dose-dependent response
effective concentration on colony-forming ability in soft agar [5]: 0.1 µg/mL
HMW-IRES activity (LucR/LucF ratio) [6]: down regulated
HMW-IRES activity (LucR/LucF ratio) ([6]; listed as Thalidomide): alter the IRES activity in a dose-dependent manner
decrease of the HMW bFGFs compared with LMW bFGFs [7]: more dramatic than that of LMW ones
concentration inhibiting LPS induced TNF-α secretion [8]: 0.3 µg/mL
EGFP fluorescence (flow cytometry) [9]: diminish
EGFP transcripts (real-time RT-PCR) [9]: diminish
concentrations used to suppress the G-rich hTERT promoter [10]: 12.5 µg/mL and 25 µg/mL
cell aggregates formed in spheroid culture [11]: efficiently inhibited
cell aggregates formed in spheroid culture [11, 16]: abolished
quench of the absorbance at 230 nm [12]: more severe quench
bFGF RNA levels ([13]; 0.1˜10 μg/ml, 3 hr): markedly reduced
inhibitory effect on bFGF expression (RNA) ([13]; 12 hr treatment): disappeared
LMW-IRES activity (LucR/LucF ratio) [14]: down regulated
LMW-IRES activity (LucR/LucF ratio) ([14]; listed as Thalidomide): alter the IRES activity in a dose-dependent manner
serum concentration [15]: 1800 to 10000 ng/mL
